In ChEMBL document CHEMBL3611992, “Synthesis and Structure-Activity Relationships of Quaternary Coptisine Derivatives as Potential Anti-ulcerative Colitis Agents” (J Med Chem, 2015):
Activity calls are given as the source filed them. No cut-off for these calls is given here.

Experiments:
[1] = target: T1, X-box-binding protein 1 (Homo sapiens) (UniProt P17861); test: Transactivation of XBP1 (unknown origin) transfected in rat IEC-6 cells at 10 uM after 48 hrs by dual luciferase reporter gene assay; format: cell-based
T1 sequence (whole entry): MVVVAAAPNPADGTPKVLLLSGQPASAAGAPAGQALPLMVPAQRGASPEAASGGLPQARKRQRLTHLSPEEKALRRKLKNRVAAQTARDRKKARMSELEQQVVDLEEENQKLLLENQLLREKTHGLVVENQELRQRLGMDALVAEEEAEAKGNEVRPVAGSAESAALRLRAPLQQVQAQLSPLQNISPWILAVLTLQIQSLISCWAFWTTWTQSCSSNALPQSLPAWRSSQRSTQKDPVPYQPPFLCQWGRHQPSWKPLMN

Mus musculus [2] = organism: Mus musculus; test: Anti-ulcerative colitis activity in DSS-induced acute C57Bl/6J mouse ulcerative colitis model; format: functional, organism-based
[3] = Cytotoxicity against rat IEC-6 cells assessed as cell survival at 10 uM after 24 to 72 hrs by MTT assay; format: cell-based; conditions: iec-6, 10 µM
Mus musculus [4] = test: Toxicity in DSS-induced acute C57Bl/6J mouse ulcerative colitis model assessed as change in body weight at 100 mg/kg, po qd (reference value: -15.3%); format: organism-based; conditions: in vivo
Mus musculus [5] = test: Anti-ulcerative colitis activity in po dosed DSS-induced acute C57Bl/6J mouse ulcerative colitis model assessed as inhibition rate of disease activity index administered as qd measured on day 8; format: functional, organism-based
Mus musculus [6] = test: Anti-ulcerative colitis activity in DSS-induced acute C57Bl/6J mouse ulcerative colitis model assessed as inhibition rate of disease activity index at 50 mg/kg, po qd measured on day 8 relative to control; format: functional; conditions: 192 h
Mus musculus [7] = test: Anti-ulcerative colitis activity in DSS-induced acute C57Bl/6J mouse ulcerative colitis model assessed as inhibition rate of disease activity index at 100 mg/kg, po qd measured on day 8 relative to control; format: functional; conditions: 192 h
Mus musculus [8] = test: Anti-ulcerative colitis activity in DSS-induced acute C57Bl/6J mouse ulcerative colitis model assessed as inhibition rate of disease activity index at 200 mg/kg, po qd measured on day 8 relative to control; format: functional; conditions: 192 h
Mus musculus [9] = test: Toxicity in DSS-induced acute C57Bl/6J mouse ulcerative colitis model assessed as change in body weight at 50 mg/kg, po qd (reference value: -15.3%); format: organism-based; conditions: in vivo
Mus musculus [10] = test: Anti-ulcerative colitis activity in DSS-induced acute C57Bl/6J mouse ulcerative colitis model assessed as improvement in colon contracture at 200 mg/kg, po qd measured on day 8 (reference value: 41.8%); format: functional
Mus musculus [11] = test: Anti-ulcerative colitis activity in DSS-induced acute C57Bl/6J mouse ulcerative colitis model assessed as improvement in colon contracture at 50 mg/kg, po qd measured on day 8 (reference value: 41.8%); format: functional
[12] = target: T1, X-box-binding protein 1 (Homo sapiens); test: Transactivation of XBP1 (unknown origin) transfected in rat IEC-6 cells at 10 uM after 48 hrs by dual luciferase reporter gene assay relative to con 2; format: cell-based
Mus musculus [13] = test: Toxicity in DSS-induced acute C57Bl/6J mouse ulcerative colitis model assessed as change in body weight at 200 mg/kg, po qd (reference value: -15.3%); format: organism-based; conditions: in vivo
Mus musculus [14] = test: Anti-ulcerative colitis activity in DSS-induced acute C57Bl/6J mouse ulcerative colitis model assessed as improvement in colon contracture at 100 mg/kg, po qd measured on day 8 (reference value: 41.8%); format: functional
Mus musculus [15] = test: Anti-ulcerative colitis activity in DSS-induced acute C57Bl/6J mouse ulcerative colitis model assessed as improvement in lesions of inflammatory bowel disease at 200 mg/kg, po qd measured on day 8; format: functional, organism-based
Mus musculus [16] = test: Anti-ulcerative colitis activity in DSS-induced acute C57Bl/6J mouse ulcerative colitis model assessed as colon macroscopic damage index at 200 mg/kg, po qd measured on day 8 (reference value: 5.69 +/- 1.12); format: functional
Mus musculus [17] = test: Anti-ulcerative colitis activity in DSS-induced acute C57Bl/6J mouse ulcerative colitis model assessed as colon macroscopic damage index at 50 mg/kg, po qd measured on day 8 (reference value: 5.69 +/- 1.12); format: functional
Mus musculus [18] = test: Anti-ulcerative colitis activity in DSS-induced acute C57Bl/6J mouse ulcerative colitis model assessed as colon macroscopic damage index at 100 mg/kg, po qd measured on day 8 (reference value: 5.69 +/- 1.12); format: functional
Mus musculus [19] = test: Anti-ulcerative colitis activity in DSS-induced acute C57Bl/6J mouse ulcerative colitis model assessed as appearance of regularly arranged IEC cells at 200 mg/kg, po qd measured on day 8; format: functional, organism-based
Mus musculus [20] = test: Anti-ulcerative colitis activity in po dosed DSS-induced acute C57Bl/6J mouse ulcerative colitis model assessed as decrease in colon macroscopic damage index administered as qd measured on day 8; format: functional, organism-based
Mus musculus [21] = organism: Mus musculus; test: Potency index, ratio of compound activity to SASP activity for inhibition rate of disease activity index in DSS-induced acute C57Bl/6J mouse ulcerative colitis model; format: functional
Mus musculus [22] = test: Anti-ulcerative colitis activity in DSS-induced acute C57Bl/6J mouse ulcerative colitis model assessed as decrease in inflammatory lesions in colon tissue at 50 to 100 mg/kg, po qd measured on day 8; format: functional, organism-based
Mus musculus [23] = test: Anti-ulcerative colitis activity in DSS-induced acute C57Bl/6J mouse ulcerative colitis model assessed as restoration of polarity arrangement of IEC cells to its normal physiological state at 200 mg/kg, po qd measured on day 8; format: functional, organism-based
Mus musculus [24] = organism: Mus musculus; test: Toxicity in C57Bl/6J mouse; format: organism-based; conditions: in vivo
Mus musculus [25] = test: Anti-ulcerative colitis activity in DSS-induced acute C57Bl/6J mouse ulcerative colitis model assessed as recovery of each muscle layer structure at 300 mg/kg, po qd measured on day 8; format: functional, organism-based
Mus musculus [26] = test: Anti-ulcerative colitis activity in DSS-induced acute C57Bl/6J mouse ulcerative colitis model assessed as colon macroscopic damage index at 300 mg/kg, po qd measured on day 8 (reference value: 5.69 +/- 1.12); format: functional
Mus musculus [27] = test: Anti-ulcerative colitis activity in DSS-induced acute C57Bl/6J mouse ulcerative colitis model assessed as improvement in number of visible colitis lesions at 300 mg/kg, po qd measured on day 8; format: functional, organism-based
Mus musculus [28] = test: Toxicity in DSS-induced acute C57Bl/6J mouse ulcerative colitis model assessed as change in body weight at 300 mg/kg, po qd (reference value: -15.3%); format: organism-based; conditions: in vivo
Mus musculus [29] = test: Anti-ulcerative colitis activity in DSS-induced acute C57Bl/6J mouse ulcerative colitis model assessed as inhibition rate of disease activity index at 300 mg/kg, po qd measured on day 8 relative to control; format: functional; conditions: 192 h
Mus musculus [30] = test: Anti-ulcerative colitis activity in DSS-induced acute C57Bl/6J mouse ulcerative colitis model assessed as improvement in colon contracture at 300 mg/kg, po qd measured on day 8 (reference value: 41.8%); format: functional

SMILES | Activity [1] | Activity (Mus musculus [2]) | further results
Fc1cccc(Cc2c3[n+](cc4c5c(ccc24)OCO5)CCc2cc4c(cc2-3)OCO4)c1 | Active | inactive | 
c1cc2c(c3c1CC1c4cc5c(cc4CCN1C3)OCO5)OCO2 (stereo not given) |  | inactive | 
O=c1c2c3c(ccc2cc2n1CCc1cc4c(cc1-2)OCO4)OCO3 | Active | inactive | 
Cc1c2[n+](cc3c4c(ccc13)OCO4)CCc1cc3c(cc1-2)OCO3 | Active | inactive | 
N#Cc1ccc(CC2=C3c4cc5c(cc4CCN3Cc3c2ccc2c3OCO2)OCO5)cc1 | Active |  | 
FC(F)(F)c1cccc(CC2=C3c4cc5c(cc4CCN3Cc3c2ccc2c3OCO2)OCO5)c1 | Active |  | 
C=C(C(=O)CCC)c1c2c3c(ccc2c(C)c2[n+]1CCc1cc4c(cc1-2)OCO4)OCO3 | inactive |  | 
FC(F)(F)c1cccc(Cc2c3[n+](cc4c5c(ccc24)OCO5)CCc2cc4c(cc2-3)OCO4)c1.[Cl-] |  |  | Activity [3]: Toxic
Fc1ccccc1CC1=C2c3cc4c(cc3CCN2Cc2c1ccc1c2OCO1)OCO4 | Active |  | 
Fc1ccccc1Cc1c2[n+](cc3c4c(ccc13)OCO4)CCc1cc3c(cc1-2)OCO3 | Active | inactive | 
C=C(C(=O)CCCC)c1c2c3c(ccc2c(C)c2[n+]1CCc1cc4c(cc1-2)OCO4)OCO3 | inactive |  | 
C=C(C(C)=O)c1c2c3c(ccc2c(C)c2[n+]1CCc1cc4c(cc1-2)OCO4)OCO3 |  | inactive | 
C=C(C(=O)c1ccc(CC(C)C)cc1)c1c2c3c(ccc2c(C)c2[n+]1CCc1cc4c(cc1-2)OCO4)OCO3 | inactive |  | 
CC(=O)CC1c2c(ccc3c2OCO3)C=C2c3cc4c(cc3CCN21)OCO4 (racemic) | Active |  | Activity (Mus musculus [4]): 3.26%; inhibition (Mus musculus [5]): Dose-dependent effect; inhibition in vivo at 50 mg/kg (Mus musculus [6]): 36.4%; inhibition in vivo at 100 mg/kg (Mus musculus [7]): 60.3%; inhibition in vivo at 200 mg/kg (Mus musculus [8]): 63.8%; Activity (Mus musculus [9]): -12.9%; Activity (Mus musculus [10]): 20.4%; Activity (Mus musculus [11]): 38.3%; fold change (FC) [12]: 2.06; Activity (Mus musculus [13]): 3.33%; Activity (Mus musculus [14]): 28.8%
Fc1ccc(Cc2c3[n+](cc4c5c(ccc24)OCO5)CCc2cc4c(cc2-3)OCO4)c(F)c1 | Active | inactive | 
Fc1ccc(Cc2c3[n+](cc4c5c(ccc24)OCO5)CCc2cc4c(cc2-3)OCO4)cc1 | Active | inactive | 
CC1=C2c3cc4c(cc3CCN2Cc2c1ccc1c2OCO1)OCO4 | Active | inactive | 

SMILES | Activity [1] | Activity (Mus musculus [2]) | further results
C1=C2c3cc4c(cc3CCN2Cc2c1ccc1c2OCO1)OCO4 | Active |  | Activity (Mus musculus [4]): 0.4%; Activity (Mus musculus [15]): Active; Activity_index (Mus musculus [16]): 2.16; inhibition (Mus musculus [5]): Dose-dependent effect; inhibition in vivo at 50 mg/kg (Mus musculus [6]): 48%; Activity_index (Mus musculus [17]): 3.52; inhibition in vivo at 100 mg/kg (Mus musculus [7]): 55.9%; inhibition in vivo at 200 mg/kg (Mus musculus [8]): 74%; Activity_index (Mus musculus [18]): 2.86; Activity (Mus musculus [9]): -7%; Activity (Mus musculus [19]): Active; Activity (Mus musculus [20]): Dose-dependent effect; Activity (Mus musculus [10]): 18.7%; Activity (Mus musculus [11]): 24.6%; Ratio (Mus musculus [21]): <=2; fold change (FC) [12]: 2.96; Activity (Mus musculus [13]): 6.8%; Activity (Mus musculus [22]): inactive; Activity (Mus musculus [23]): Active; Activity (Mus musculus [14]): 20.8%
C=C(C(=O)c1ccc(OC)cc1)c1c2c3c(ccc2c(C)c2[n+]1CCc1cc4c(cc1-2)OCO4)OCO3 | inactive |  | 
N#CC1c2c(ccc3c2OCO3)C=C2c3cc4c(cc3CCN21)OCO4 (racemic) | Active |  | Activity (Mus musculus [24]): Toxic
C=C(C(=O)C(C)C)c1c2c3c(ccc2c(C)c2[n+]1CCc1cc4c(cc1-2)OCO4)OCO3 | inactive |  | 
C=C(C(=O)CC)c1c2c3c(ccc2c(C)c2[n+]1CCc1cc4c(cc1-2)OCO4)OCO3 |  | inactive | 
C=C(C(=O)C(C)(C)C)c1c2c3c(ccc2c(C)c2[n+]1CCc1cc4c(cc1-2)OCO4)OCO3 | inactive |  | 
N#Cc1ccc(Cc2c3[n+](cc4c5c(ccc24)OCO5)CCc2cc4c(cc2-3)OCO4)cc1 | Active | inactive | 
Fc1ccc(CC2=C3c4cc5c(cc4CCN3Cc3c2ccc2c3OCO2)OCO5)cc1 | Active |  | 
Fc1cccc(CC2=C3c4cc5c(cc4CCN3Cc3c2ccc2c3OCO2)OCO5)c1 | Active |  | 
COc1ccc(Cc2c3[n+](cc4c5c(ccc24)OCO5)CCc2cc4c(cc2-3)OCO4)cc1 | Active | inactive | 
COc1ccc(CC2=C3c4cc5c(cc4CCN3Cc3c2ccc2c3OCO2)OCO5)cc1 | Active |  | 
Cc1ccc(CC2=C3c4cc5c(cc4CCN3Cc3c2ccc2c3OCO2)OCO5)cc1 | Active |  | 
C1=CC2CC=CCN2CC1 (stereo not given) | Active |  | 
O=C(O)c1cc(/N=N/c2ccc(S(=O)(=O)Nc3ccccn3)cc2)ccc1O [SULFASALAZINE] |  |  | Activity (Mus musculus [25]): Active; Activity_index (Mus musculus [26]): 3.98; Activity (Mus musculus [27]): Active; Activity (Mus musculus [28]): -8.42%; inhibition in vivo at 300 mg/kg (Mus musculus [29]): 30.6%; Activity (Mus musculus [30]): 30%
Cc1ccc(Cc2c3[n+](cc4c5c(ccc24)OCO5)CCc2cc4c(cc2-3)OCO4)cc1.[Cl-] |  |  | Activity [3]: Toxic
Fc1ccc(CC2=C3c4cc5c(cc4CCN3Cc3c2ccc2c3OCO2)OCO5)c(F)c1 | Active |  | 
C=C(C(=O)C1CC1)c1c2c3c(ccc2c(C)c2[n+]1CCc1cc4c(cc1-2)OCO4)OCO3 | inactive |  | 
